Assay results from US8247377B2, “Non-steroidal glucocorticoid inhibitors and their use in treating inflammation, allergy and auto-immune conditions” (Glaxo Group Limited, priority 2006, dated 2012).

What follows are molecules tested against T1, glucocorticoid receptor (Homo sapiens, UniProt P04150) (assay: Glucocorticoid receptor binding assay (fluorescence polarisation)). Conditions: competition with Alexa 555 fluorescently-labelled dexamethasone derivative, full length glucocorticoid receptor; read-out: glucocorticoid binding pIC50 (converted).
T1 construct: a partially purified full length glucocorticoid receptor
T1 sequence (P04150 1-777): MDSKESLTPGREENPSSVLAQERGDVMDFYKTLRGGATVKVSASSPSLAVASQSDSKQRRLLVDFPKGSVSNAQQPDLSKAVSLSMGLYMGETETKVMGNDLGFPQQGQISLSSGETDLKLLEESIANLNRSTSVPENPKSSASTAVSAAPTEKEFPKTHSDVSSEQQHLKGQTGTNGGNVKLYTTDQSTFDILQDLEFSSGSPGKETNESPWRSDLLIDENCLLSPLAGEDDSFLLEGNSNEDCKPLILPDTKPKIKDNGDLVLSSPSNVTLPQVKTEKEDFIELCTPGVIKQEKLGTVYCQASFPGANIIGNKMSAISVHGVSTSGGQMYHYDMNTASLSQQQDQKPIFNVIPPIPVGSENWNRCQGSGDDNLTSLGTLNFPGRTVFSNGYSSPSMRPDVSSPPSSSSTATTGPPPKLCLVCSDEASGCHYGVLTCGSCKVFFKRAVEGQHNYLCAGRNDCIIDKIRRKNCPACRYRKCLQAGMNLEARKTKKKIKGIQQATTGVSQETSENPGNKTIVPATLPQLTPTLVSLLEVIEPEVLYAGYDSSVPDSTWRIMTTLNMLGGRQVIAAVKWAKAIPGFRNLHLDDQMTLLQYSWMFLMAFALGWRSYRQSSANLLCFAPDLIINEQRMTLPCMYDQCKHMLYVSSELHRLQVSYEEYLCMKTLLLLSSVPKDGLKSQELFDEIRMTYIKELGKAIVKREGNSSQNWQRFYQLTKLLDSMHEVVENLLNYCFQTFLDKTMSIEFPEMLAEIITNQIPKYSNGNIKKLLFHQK
How it was run: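 Compounds in DMSO incubated with fluorescent dexamethasone and partially purified full-length GR plus stabilising buffer components, 2 hrs at room temperature in the dark. Displacement read as decrease in fluorescence polarisation; pIC50 estimated from dose-response curves.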
With `CN(CC(O)(CNC(=O)c1cnn(-c2ccc(F)cc2)c1N)C(F)(F)F)C(=O)c1c(Cl)cccc1Cl` (racemic) [Example 1 (racemic), 5-Amino-N-(2-{[[(2,6-dichlorophenyl)carbonyl](methyl)amino]methyl}-3,3,3-trifluoro-2-hydroxypropyl)-1-(4-fluorophenyl)-1H-pyrazole-4-carboxamide] the IC50 was ≤ 0.316 µM. For `CCN(CC(O)(CNC(=O)c1cnn(-c2ccc(F)cc2)c1N)C(F)(F)F)C(=O)c1c(Cl)cccc1Cl` (racemic) [Example 2 (racemic), 5-Amino-N-(2-{[[(2,6-dichlorophenyl)carbonyl](ethyl)amino]methyl}-3,3,3-trifluoro-2-hydroxypropyl)-1-(4-fluorophenyl)-1H-pyrazole-4-carboxamide], the IC50 was ≤ 0.316 µM. In the case of `Nc1c(C(=O)NCC(O)(CNC(=O)c2c(Cl)cccc2Cl)C(F)(F)F)cnn1-c1ccc(F)cc1` (racemic) [Example 3 (racemic), 5-Amino-N-[2-({[(2,6-dichlorophenyl)carbonyl]amino}methyl)-3,3,3-trifluoro-2-hydroxypropyl]-1-(4-fluorophenyl)-1H-pyrazole-4-carboxamide], the IC50 is reported as ≤ 0.316 µM. With `CCN(CC(O)(CNC(=O)c1cnn(-c2ccc(F)cc2)c1N)C(F)(F)F)C(=O)c1c(F)cccc1Cl` (racemic) [Example 4 (racemic), 5-Amino-N-(2-{[[(2-chloro-6-fluorophenyl)carbonyl](ethyl)amino]methyl}-3,3,3-trifluoro-2-hydroxypropyl)-1-(4-fluorophenyl)-1H-pyrazole-4-carboxamide] the IC50 was ≤ 0.316 µM. With `CCN(CC(O)(CNC(=O)c1cnn(-c2ccc(F)cc2)c1N)C(F)(F)F)C(=O)c1c(F)cccc1F` (racemic) [Example 5 (racemic), 5-Amino-N-(2-{[[(2,6-difluorophenyl)carbonyl](ethyl)amino]methyl}-3,3,3-trifluoro-2-hydroxypropyl)-1-(4-fluorophenyl)-1H-pyrazole-4-carboxamide] the IC50 was ≤ 0.316 µM. `Nc1c(C(=O)NCC(O)(CNC(=O)c2c(F)cccc2Cl)C(F)(F)F)cnn1-c1ccc(F)cc1` (racemic) [Example 7 (racemic), 5-Amino-N-[2-({[(2-chloro-6-fluorophenyl)carbonyl]amino}methyl)-3,3,3-trifluoro-2-hydroxypropyl]-1-(4-fluorophenyl)-1H-pyrazole-4-carboxamide] was tested, and the IC50 was ≤ 0.316 µM. With `CN(CC(O)(CNC(=O)c1cnn(-c2ccc(F)cc2)c1N)C(F)(F)F)C(=O)c1c(F)cccc1F` (racemic) [Example 8 (racemic), 5-Amino-N-(2-{[[(2,6-difluorophenyl)carbonyl](methyl)amino]methyl}-3,3,3-trifluoro-2-hydroxypropyl)-1-(4-fluorophenyl)-1H-pyrazole-4-carboxamide] the IC50 was ≤ 0.316 µM. In the case of `CN(CC(O)(CNC(=O)c1cnn(-c2ccc(F)cc2)c1N)C(F)(F)F)C(=O)c1c(F)cccc1Cl` (racemic) [Example 9 (racemic), 5-Amino-N-(2-{[[(2-chloro-6-fluorophenyl)carbonyl](methyl)amino]methyl}-3,3,3-trifluoro-2-hydroxypropyl)-1-(4-fluorophenyl)-1H-pyrazole-4-carboxamide], the IC50 is reported as ≤ 0.316 µM. `CCN(CC(O)(CNC(=O)c1cnn(-c2ccc(F)cc2)c1N)C(F)(F)F)C(=O)c1ccccc1S(C)(=O)=O` (racemic) [Example 10 (racemic), 5-Amino-N-{2-[(ethyl{[2-(methylsulfonyl)phenyl]carbonyl}amino)methyl]-3,3,3-trifluoro-2-hydroxypropyl}-1-(4-fluorophenyl)-1H-pyrazole-4-carboxamide] was tested, and the IC50 was ≤ 0.316 µM. For `Nc1c(C(=O)NCC(O)(CNC(=O)c2c(Br)cccc2Br)C(F)(F)F)cnn1-c1ccc(F)cc1` (racemic) [Example 11 (racemic), 5-Amino-N-[2-({[(2,6-dibromophenyl)carbonyl]amino}methyl)-3,3,3-trifluoro-2-hydroxypropyl]-1-(4-fluorophenyl)-1H-pyrazole-4-carboxamide], the IC50 was ≤ 0.316 µM.
